In ChEMBL document CHEMBL1136066, “Non-covalent thrombin inhibitors featuring P(3)-heterocycles with P(1)-monocyclic arginine surrogates” (Bioorg Med Chem Lett, 2002):

Tests used:
[1] = target: T1, Serine protease 1 (Homo sapiens, UniProt P07477)
[2] = target: Prothrombin (Homo sapiens, UniProt P00734); assay: In vitro inhibitory constant against human thrombin (FIIa).
[3] = target: T2, Coagulation factor X (Homo sapiens, UniProt P00742)
[4] = target: T1, Serine protease 1; remark: listed apart in the source
[5] = target: T2, Coagulation factor X; remark: listed apart in the source

T2 sequence (P00742 41-179 limits assumed): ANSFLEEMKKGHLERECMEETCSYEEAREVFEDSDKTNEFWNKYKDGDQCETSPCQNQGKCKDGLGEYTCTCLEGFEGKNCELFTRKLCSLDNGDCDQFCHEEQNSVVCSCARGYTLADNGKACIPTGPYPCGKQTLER
T2 sequence (P00742 235-488 limits assumed): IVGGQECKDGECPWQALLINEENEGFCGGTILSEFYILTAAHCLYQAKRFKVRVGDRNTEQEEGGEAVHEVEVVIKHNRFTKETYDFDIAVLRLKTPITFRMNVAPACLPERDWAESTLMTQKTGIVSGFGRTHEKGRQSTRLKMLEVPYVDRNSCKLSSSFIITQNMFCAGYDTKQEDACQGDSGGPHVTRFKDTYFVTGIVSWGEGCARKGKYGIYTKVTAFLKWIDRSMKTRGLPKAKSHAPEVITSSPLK
T1 sequence (P07477 whole entry): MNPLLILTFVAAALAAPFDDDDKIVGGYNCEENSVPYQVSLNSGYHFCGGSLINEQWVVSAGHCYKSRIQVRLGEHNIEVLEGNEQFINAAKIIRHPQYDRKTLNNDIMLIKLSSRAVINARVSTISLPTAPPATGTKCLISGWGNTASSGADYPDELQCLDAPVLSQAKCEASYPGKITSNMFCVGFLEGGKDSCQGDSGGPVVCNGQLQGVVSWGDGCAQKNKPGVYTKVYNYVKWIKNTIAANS

SMILES	Ki [1]	Ki [2]	Ki [3]	Ki [4]	Ki [5]
Cc1ccc(NS(=O)(=O)Cc2ccccc2)c(=O)n1CC(=O)NCc1ccc(C(=N)N)c(F)c1	Not Active	3.6 nM	Not Active		
Cc1nc(N)ncc1CNC(=O)Cn1c(C)cnc(NCCc2ccccc2)c1=O	Not Active	197 nM	Not Active		
Cc1cnc(NCC(F)(F)c2ccc(F)cc2)c(=O)n1CC(=O)NCc1cnc(N)cn1	Not Active	5.9 nM	Not Active		
Cc1ccc(NS(=O)(=O)Cc2ccccc2)c(=O)n1CC(=O)NC[C@@H]1CNC(N)=N[C@@H]1C	Not Active	1.1 nM	Not Active		
Cc1cnc(NCCc2ccccc2)c(=O)n1CC(=O)NCc1ccc(C(=N)N)cc1			Not Active	19.7 nM	
Cc1cnc(NCC2(c3ccc(Cl)cc3)CCC2)c(=O)n1CC(=O)NCc1cnc(N)cn1	Not Active	5.5 nM	Not Active		
Cc1cnc(NCCc2ccccc2)c(=O)n1CC(=O)NCc1ccc(C(=N)NO)s1	Not Active	30.8 nM	Not Active		
Cc1nc(N)ccc1CNC(=O)Cn1c(C)cnc(NCCc2ccccc2)c1=O [L-375378]	Not Active	1 nM			
Cc1cnc(NCCc2ccccc2)c(=O)n1CC(=O)NC[C@@H]1CNC(N)=N[C@@H]1C	Not Active	3.2 nM	Not Active		
Cc1ccc(NS(=O)(=O)Cc2ccccc2)c(=O)n1CC(=O)NCc1cnc(N)cn1	Not Active	158 nM	Not Active		
Cc1cnc(NCCc2ccccc2)c(=O)n1CC(=O)NCc1cnc(N)nc1	Not Active	357 nM	Not Active		
Cc1nc(N)ncc1CNC(=O)Cn1c(C)ccc(NS(=O)(=O)Cc2cccc3c2OCCO3)c1=O	Not Active		Not Active		
Cc1nc(N)ccc1CNC(=O)Cn1c(C)ccc(NS(=O)(=O)Cc2ccccc2)c1=O [L-374087]	Not Active	0.68 nM			
Cc1ccc(NS(=O)(=O)Cc2ccccc2)c(=O)n1CC(=O)NCc1ccc(C(=N)N)cc1		0.37 nM	Not Active	49.3 nM	
Cc1cnc(NCCc2ccccc2)c(=O)n1CC(=O)NCc1cnc(N)cn1	Not Active		Not Active		
Cc1cnc(NCCc2ccccc2)c(=O)n1CC(=O)NCC1CN=C(N)NC1 (stereo unspecified)	Not Active	1.9 nM	Not Active		
Cc1ccc(NS(=O)(=O)Cc2ccccc2)c(=O)n1CC(=O)NCc1cnc(N)nc1	Not Active	462 nM	Not Active		

SMILES	Ki [1]	Ki [2]	Ki [3]	Ki [4]	Ki [5]
Cc1nc(N)nc(C)c1CNC(=O)Cn1c(C)ccc(NS(=O)(=O)Cc2ccccc2)c1=O	Not Active	281 nM	Not Active		
COc1cccc(S(=O)(=O)Nc2cccn(CC(=O)NCc3ccc(C(=N)N)cc3Cl)c2=O)c1		20.8 nM		76.5 nM	
COC(=O)c1ccc(F)cc1CS(=O)(=O)Nc1ccc(C)n(CC(=O)N[C@H](CCCN=C(N)N)C(=O)O)c1=O		0.1 nM		16.6 nM	1810 nM
Cc1cnc(NCCc2ccccc2)c(=O)n1CC(=O)NCc1ccc(C(=N)N)s1		0.12 nM	Not Active	4.4 nM	
Cc1cnc(NCC(F)(F)c2ccccc2)c(=O)n1CC(=O)NCc1cnc(N)cn1	Not Active	9.8 nM	Not Active		
Cc1ccc(NS(=O)(=O)Cc2ccccc2F)c(=O)n1CC(=O)N[C@H](CCCNC(=N)N)C(=O)O [CVS-2359]		0.14 nM		12.4 nM	674 nM
Cc1cnc(NCCc2ccccc2)c(=O)n1CC(=O)NCc1ccc(C(=N)NO[Si](C)(C)C(C)(C)C)s1	Not Active	13.2 nM	Not Active		
Cc1ccc(NS(=O)(=O)Cc2ccccc2)c(=O)n1CC(=O)NCc1nc(CN)cs1		136 nM		> 168 nM	> 338 nM
COc1cccc(S(=O)(=O)Nc2cccn(CC(=O)NCc3ccc(C(=N)N)cc3OC)c2=O)c1		1.6 nM		11.9 nM	76.8 nM
Cc1ccc(NS(=O)(=O)Cc2ccccc2)c(=O)n1CC(=O)NCC1CN=C(N)NC1 (stereo unspecified)	Not Active	1 nM	Not Active		
Cc1nc(N)ncc1CNC(=O)Cn1c(C)cnc(NCCc2ccc3c(c2)CCO3)c1=O	Not Active	324 nM	Not Active		
COc1cccc(S(=O)(=O)Nc2cccn(CC(=O)NCc3ccc(C(=N)N)cc3F)c2=O)c1		6 nM		31.3 nM	249 nM
Cc1nc(N)ncc1CNC(=O)Cn1c(C)ccc(NS(=O)(=O)Cc2ccccc2)c1=O	Not Active	85.2 nM	Not Active		
COc1cccc(S(=O)(=O)Nc2cccn(CC(=O)NCc3nc(C(=N)N)cs3)c2=O)c1		5.9 nM		> 168 nM	179 nM
Cc1ccc(NS(=O)(=O)Cc2ccccc2)c(=O)n1CC(=O)NCc1ccc(C(=N)N)s1		0.1 nM		13.6 nM	96.4 nM
COc1cccc(S(=O)(=O)Nc2cccn(CC(=O)NCc3ccc(C(=N)N)cc3)c2=O)c1		5.3 nM		18.7 nM	153 nM
Cc1nc(N)ncc1CNC(=O)Cn1c(C)cnc(NCC(F)(F)c2ccccc2)c1=O	Not Active	141 nM	Not Active		
